Holding throughout (assay type): functional, Homo sapiens
Common to all, as to conditions: Homo sapiens, read-out: Cell Viability; for viability at 10 µM: Concentration 10 uM; for viability at 1 µM: Concentration 1 uM

The subject of test [1] is Colon cancer organoid. The experiment in a line: Targeting of F14 CAF-induced therapy resistance in O23 CRC organoid-stroma co-culture. Cell viability is reported without Gefitinib.
The test system of test [2] is Colon cancer organoid. Put plainly: Targeting of F14 CAF-induced therapy resistance in O23 CRC organoid-stroma co-culture. Cell viability is reported with Gefitinib.
Test [3] relates to Colon cancer organoid. Put plainly: Targeting of F14 CAF-induced therapy resistance in O23 CRC organoid-stroma co-culture. Cell viability is reported with SN-38.
Test [4] deals with Colon cancer organoid. Put plainly: Targeting of F14 CAF-induced therapy resistance in O14 CRC organoid-stroma co-culture. Cell viability is reported without Gefitinib.
In test [5] the test system is Colon cancer organoid. Put plainly: Targeting of F14 CAF-induced therapy resistance in O14 CRC organoid-stroma co-culture. Cell viability is reported with Gefitinib.

For `CCCOc1ccn2c(C(C)=O)cc(-c3cccc(OC)c3)c2c1`, the viability at 10 µM came to 112% in the test on Colon cancer organoid [1]; 74.1% with Colon cancer organoid [2]; 92.8% with Colon cancer organoid [3]; 113% with Colon cancer organoid [4]; 64.8% in the test with Colon cancer organoid [5].

With `Cc1ccc(NC(=O)Nc2cc(C(F)(F)F)ccc2F)cc1Nc1ccc2c(c1)NC(=O)/C2=C\c1ccc[nH]1`, the viability at 10 µM in the test with Colon cancer organoid [1] came out at 117%; with Colon cancer organoid [2] it was 82.1%; in the test on Colon cancer organoid [3], 74.2%; with Colon cancer organoid [4], 121%; in the test on Colon cancer organoid [5] it was 40%.

As to `COc1cc2c(cc1OCCCN1CCCC1)N=C(N)C21CCC1`, the viability at 10 µM came to 122% in the test on Colon cancer organoid [1]; 55.4% in the test on Colon cancer organoid [2]; 76.1% with Colon cancer organoid [3]; 82.9% in the test on Colon cancer organoid [4]; 46.9% in the test on Colon cancer organoid [5].

With `COc1cccc(CNC(=O)c2nc3scc(COCc4ccc(C(=O)O)cc4)c3c(=O)[nH]2)c1` [T-26c], the viability at 1 µM came to 98.3% with Colon cancer organoid [1]; 68.3% with Colon cancer organoid [2]; 62.7% in the test on Colon cancer organoid [3]; 173% with Colon cancer organoid [4]; 60% with Colon cancer organoid [5].

In the case of `CCn1c(-c2nc3cc(C(=O)N4CCCC(N)C4)ccc3n2C)cc2ccccc21` (stereo not given), the viability at 10 µM in the test with Colon cancer organoid [1] is 139%; in the test with Colon cancer organoid [2], 83.2%; in the test with Colon cancer organoid [3], 79.2%; in the test on Colon cancer organoid [4] it was 76.9%; in the test with Colon cancer organoid [5] it was 65%.

Regarding `CC1=C(C#N)C(c2ccc3[nH]nc(C)c3c2)C(C#N)=C(C)N1` [BAY-474], the viability at 10 µM came out at 115% with Colon cancer organoid [1]; 22.9% in the test on Colon cancer organoid [2]; 81.4% in the test with Colon cancer organoid [3]; 90.1% in the test on Colon cancer organoid [4]; 7.78% in the test with Colon cancer organoid [5].

Take `CC(=O)Nc1c(F)cc(C(=O)N[C@H]2CC[C@H](O)CC2)cc1O[C@@H](C)c1ccccc1` [GSK046]: the viability at 10 µM is 100% with Colon cancer organoid [1]; 55.8% with Colon cancer organoid [2]; 48.8% with Colon cancer organoid [3]; 121% in the test with Colon cancer organoid [4]; 25.9% with Colon cancer organoid [5].

With `Cc1cc(NC(=O)c2cccc(S(F)(F)(F)(F)F)c2)cc(-n2ccn3nc(-c4cccnc4)cc23)c1` [BAY-309], the viability at 10 µM in the test on Colon cancer organoid [1] worked out at 159%; in the test on Colon cancer organoid [2] it was 65%; in the test with Colon cancer organoid [3], 61.2%; in the test with Colon cancer organoid [4] it was 87.3%; in the test on Colon cancer organoid [5], 49.9%.

On to `O=C(Nc1cnc(Oc2ccc(F)cc2)nc1)N1CCc2ncccc2[C@@H]1c1ccc(F)cc1` [BAY-899], for which the viability at 10 µM in the test with Colon cancer organoid [1] worked out at 223%; in the test on Colon cancer organoid [2] it was 63.6%; in the test on Colon cancer organoid [3], 59.1%; in the test on Colon cancer organoid [4] it was 98.8%; with Colon cancer organoid [5], 39.4%.

In the case of `CNC(=O)Nc1ccc2c(c1)CC[C@@]21OC(=O)N(CC(=O)N(Cc2ccc(F)cc2)[C@@H](C)C(F)(F)F)C1=O` [A-485], the viability at 1 µM was determined as 60.4% in the test with Colon cancer organoid [1]; 34.6% with Colon cancer organoid [2]; 51% in the test on Colon cancer organoid [3]; 65.4% in the test with Colon cancer organoid [4]; 23.9% with Colon cancer organoid [5].

In the case of `C[C@@H](NC(=O)Nc1cc2[nH]ncc2c(CO)n1)c1ccccc1` [ERKi], the viability at 10 µM in the test with Colon cancer organoid [1] was found to be 14.3%; in the test with Colon cancer organoid [2], 4.5%; in the test on Colon cancer organoid [3], 14.3%; with Colon cancer organoid [4], 49.2%; with Colon cancer organoid [5], 10.3%.

On to `NS(=O)(=O)c1cc(NC(=O)C2(c3ccccc3Cl)CC2)ccc1Oc1cccc(Cl)c1` [BAY-207], for which the viability at 10 µM in the test with Colon cancer organoid [1] worked out at 78.6%; in the test with Colon cancer organoid [2] it was 42.5%; with Colon cancer organoid [3] it was 61%; with Colon cancer organoid [4] it was 86.8%; in the test on Colon cancer organoid [5], 34.8%.

Turning to `CCOC(=O)CCNc1cc(N2CCc3ccccc3CC2)nc(-c2cccnc2)n1`, the viability at 10 µM came out at 140% in the test with Colon cancer organoid [1]; 90.8% in the test with Colon cancer organoid [2]; 79.9% with Colon cancer organoid [3]; 60.1% in the test with Colon cancer organoid [4]; 57.2% with Colon cancer organoid [5].

Take `Cc1noc(C)c1-c1cnc2c(-c3ccc(C(=O)O)cc3)cn([C@@H](C)c3ccccn3)c2c1` [PLX-51107]: the viability at 10 µM in the test on Colon cancer organoid [1] was 109%; in the test on Colon cancer organoid [2] it was 78.8%; with Colon cancer organoid [3], 62.8%; in the test with Colon cancer organoid [4] it was 17.8%; with Colon cancer organoid [5] it was 6.08%.

On to `COc1cc2c(cc1-c1c(C)noc1C)ncc1[nH]c(=O)n([C@H](C)c3ccccn3)c12`, for which the viability at 10 µM in the test with Colon cancer organoid [1] worked out at 143%; with Colon cancer organoid [2], 78.1%; in the test with Colon cancer organoid [3], 91.5%; in the test on Colon cancer organoid [4], 30.2%; in the test with Colon cancer organoid [5], 9.93%.

As for `CCCOc1ccc([C@@H]2[C@@H](C(=O)O)[C@H](c3ccc4c(c3)OCO4)CN2CC(=O)Nc2c(CC)cccc2CC)cc1` [A-1806262], the viability at 1 µM with Colon cancer organoid [1] was 85%; in the test on Colon cancer organoid [2], 38.9%; in the test with Colon cancer organoid [3], 54.5%; in the test on Colon cancer organoid [4], 79.9%; with Colon cancer organoid [5] it was 47.8%.

Regarding `CN(C)[C@H]1CN(C2CCc3cccc(F)c32)C[C@@H]1c1ccc(N2CCN(S(C)(=O)=O)CC2)cc1` (stereo not given in full), the viability at 10 µM with Colon cancer organoid [1] turned out to be 81.8%; with Colon cancer organoid [2], 107%; with Colon cancer organoid [3], 112%; in the test on Colon cancer organoid [4], 70.2%; with Colon cancer organoid [5], 68.1%.

With `CNC(=O)c1cc(C(=O)NC2CC2)cn(Cc2ccccc2)c1=O` [GSK620], the viability at 10 µM in the test with Colon cancer organoid [1] worked out at 111%; with Colon cancer organoid [2], 60.9%; with Colon cancer organoid [3] it was 66.8%; with Colon cancer organoid [4], 116%; in the test on Colon cancer organoid [5] it was 24.6%.

`CCCOc1ccn2c(C(C)=O)cc(-c3ccccc3S(C)(=O)=O)c2c1`: the viability at 10 µM is 113% in the test on Colon cancer organoid [1]; 65.2% in the test with Colon cancer organoid [2]; 98.8% with Colon cancer organoid [3]; 111% with Colon cancer organoid [4]; 59.1% in the test with Colon cancer organoid [5].

Take `O=C(NCCCC1CCCCC1)c1ccc(CNC(=O)c2cnn(-c3ccccc3)c2C(F)(F)F)cc1` [SR-321]: the viability at 1 µM with Colon cancer organoid [1] is 138%; in the test on Colon cancer organoid [2], 48.4%; with Colon cancer organoid [3], 78%; in the test on Colon cancer organoid [4] it was 92%; in the test with Colon cancer organoid [5] it was 23.5%.

With `COc1cc(C(=O)O)ncc1C#Cc1ccccc1NS(=O)(=O)c1cccc2c(N(C)C)ccnc12` [MSC-0516], the viability at 10 µM in the test with Colon cancer organoid [1] worked out at 131%; with Colon cancer organoid [2] it was 47.7%; with Colon cancer organoid [3] it was 79.4%; with Colon cancer organoid [4], 117%; in the test with Colon cancer organoid [5] it was 45.9%.

On to `CC(C)[C@H](C(=O)Nc1ccc(C(=O)NO)cc1)c1ccccc1` [AR-42], for which the viability at 10 µM turned out to be 210% in the test with Colon cancer organoid [1]; 263% with Colon cancer organoid [2]; 131% in the test on Colon cancer organoid [3]; 34.5% with Colon cancer organoid [4]; 23.6% with Colon cancer organoid [5].

Consider `CN(C)CC#Cc1ccc(OCCCc2sc(N3CCc4cccc(C(=O)Nc5nc6ccccc6s5)c4C3)nc2C(=O)O)c(F)c1` [A-1155463], for which the viability at 10 µM is 5.72% in the test with Colon cancer organoid [1]; 2.66% in the test on Colon cancer organoid [2]; 0.449% in the test with Colon cancer organoid [3]; 61.6% in the test with Colon cancer organoid [4]; 21.1% with Colon cancer organoid [5].

The term viability denotes a read-out of living cells in per cent, often relative to untreated cells.

These data come from ChEMBL document CHEMBL5608113, “Targeting of CAF-induced therapy resistance in CRC organoid-stroma co-cultures” (2024).
